From PMC6547681 (Nature Communications, 2019)

Columns and labels:
[1] = test system: KMS-12-PE cells expressing BCL-2 G101V; assay: CellTiter-Glo cell viability, KMS-12-PE cells overexpressing BCL-2 G101V; conditions: read-out: S55746 LC50, KMS-12-PE overexpressing BCL-2 G101V, 24 h, mean ± SD, n = 3
Procedure: KMS-12-PE (sourced from DSMZ in 2013; Cat#ACC606) were cultured with HTRPMI with 10% fetal bovine serum. Early passages (P5-P7) after purchase were cryopreserved and thawed for the experiments. Cells beyond passage 15 were not used. Monthly tests for mycoplasma were consistently negative (MycoAlert mycoplasma detection kit; Lonza, GA, USA).
Cell viability 24 h after treatment was then determined using the CellTiter-Glo assay (Promega, Cat#G9241). […] Experiments were performed on three separate occasions; the data is shown as the means ± SD of those three independent experiments.

[2] = molecular target: BCL-2 G101V/E152A double mutant (Homo sapiens, UniProt P10415, E152A/G101V); assay: Steady-state competition SPR against immobilised BIMBH3 peptide, BCL-2 G101V/E152A double mutant; format: binding
Chain of BCL-2 G101V/E152A double mutant (P10415 with tags, fused parts or gaps G101V/E152A): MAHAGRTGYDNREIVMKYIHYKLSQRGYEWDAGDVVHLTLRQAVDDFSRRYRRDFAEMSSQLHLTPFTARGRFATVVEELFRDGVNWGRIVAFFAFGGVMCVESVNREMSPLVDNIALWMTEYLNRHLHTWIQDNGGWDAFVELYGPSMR
Procedure: SPR experiments were performed as previously described. […] The lowest concentrations used in direct binding experiments were 1 nM for BIAcore 4000 and 0.1 nM for BIAcore S200 instruments, concentrations below these were below the sensitivity thresholds for the instruments. […] Direct binding experiments were fitted to a 1:1 binding site kinetic model, fitting on and off rates, in BIAevaluation software. For competition experiments steady-state responses were determined in BIAevaluation software according to the software defaults in affinity evaluation mode averaging responses for 5 sec. […] All affinity measurements were performed in at least two independent experiments using independent protein preparations.

O=C(c1cc(-c2cc3c(cc2C(=O)N2Cc4ccccc4C[C@H]2CN2CCOCC2)OCO3)n2c1CCCC2)N(c1ccccc1)c1ccc(O)cc1 [S55746]
CC50 [1]: 2.7 ± 0.43 µM | Raw data values in Figure 3h (SPR response) ([2]; S55746 concentration 20, BCL-2 concentration 10 nM, independent experiment 1): 30.4614 | Raw data values in Figure 3h (SPR response) ([2]; S55746 concentration 20, BCL-2 concentration 10 nM, independent experiment 2): 6.021 | Raw data values in Figure 3h (SPR response) ([2]; S55746 concentration 20, BCL-2 concentration 20 nM, independent experiment 1): 65.5037 | Raw data values in Figure 3h (SPR response) ([2]; S55746 concentration 20, BCL-2 concentration 20 nM, independent experiment 2): 18.8646 | Raw data values in Figure 3h (SPR response) ([2]; S55746 concentration 20, BCL-2 concentration 30 nM, independent experiment 1): 76.9824 | Raw data values in Figure 3h (SPR response) ([2]; S55746 concentration 20, BCL-2 concentration 30 nM, independent experiment 2): 27.9038 | Raw data values in Figure 3h (SPR response) ([2]; S55746 concentration 20, BCL-2 concentration 40 nM, independent experiment 1): 81.6304 | Raw data values in Figure 3h (SPR response) ([2]; S55746 concentration 20, BCL-2 concentration 40 nM, independent experiment 2): 34.3045 | Raw data values in Figure 3h (SPR response) ([2]; S55746 concentration 20, BCL-2 concentration 50 nM, independent experiment 1): 84.581 | Raw data values in Figure 3h (SPR response) ([2]; S55746 concentration 20, BCL-2 concentration 50 nM, independent experiment 2): 38.4913 | Raw data values in Figure 3h (SPR response) ([2]; S55746 concentration 20, BCL-2 concentration 60 nM, independent experiment 1): 86.8988 | Raw data values in Figure 3h (SPR response) ([2]; S55746 concentration 20, BCL-2 concentration 60 nM, independent experiment 2): 42.4602 | Raw data values in Figure 3h (SPR response) ([2]; S55746 concentration 20, BCL-2 concentration 70 nM, independent experiment 1): 87.9145 | Raw data values in Figure 3h (SPR response) ([2]; S55746 concentration 20, BCL-2 concentration 70 nM, independent experiment 2): 45.435 | Raw data values in Figure 3h (SPR response) ([2]; S55746 concentration 20, BCL-2 concentration 80 nM, independent experiment 1): 88.9424 | Raw data values in Figure 3h (SPR response) ([2]; S55746 concentration 20, BCL-2 concentration 80 nM, independent experiment 2): 47.8619 | Raw data values in Figure 3h (SPR response) ([2]; S55746 concentration 20, BCL-2 concentration 100 nM, independent experiment 1): 90.7371 | Raw data values in Figure 3h (SPR response) ([2]; S55746 concentration 20, BCL-2 concentration 100 nM, independent experiment 2): 52.9424 | Raw data values in Figure 3h (SPR response) ([2]; S55746 concentration 20, BCL-2 concentration 150 nM, independent experiment 1): 92.2147 | Raw data values in Figure 3h (SPR response) ([2]; S55746 concentration 20, BCL-2 concentration 150 nM, independent experiment 2): 60.437 | Raw data values in Figure 3h (SPR response) ([2]; S55746 concentration 20, BCL-2 concentration 200 nM, independent experiment 1): 94.1481 | Raw data values in Figure 3h (SPR response) ([2]; S55746 concentration 20, BCL-2 concentration 200 nM, independent experiment 2): 65.8724 | Raw data values in Figure 3h (SPR response) ([2]; S55746 concentration 40, BCL-2 concentration 10 nM, independent experiment 1): 10.773 | Raw data values in Figure 3h (SPR response) ([2]; S55746 concentration 40, BCL-2 concentration 10 nM, independent experiment 2): 1.948 | Raw data values in Figure 3h (SPR response) ([2]; S55746 concentration 40, BCL-2 concentration 20 nM, independent experiment 1): 28.9257 | Raw data values in Figure 3h (SPR response) ([2]; S55746 concentration 40, BCL-2 concentration 20 nM, independent experiment 2): 5.643 | Raw data values in Figure 3h (SPR response) ([2]; S55746 concentration 40, BCL-2 concentration 30 nM, independent experiment 1): 52.4298 | Raw data values in Figure 3h (SPR response) ([2]; S55746 concentration 40, BCL-2 concentration 30 nM, independent experiment 2): 13.0173 | Raw data values in Figure 3h (SPR response) ([2]; S55746 concentration 40, BCL-2 concentration 40 nM, independent experiment 1): 71.0654 | Raw data values in Figure 3h (SPR response) ([2]; S55746 concentration 40, BCL-2 concentration 40 nM, independent experiment 2): 23.2512 | Raw data values in Figure 3h (SPR response) ([2]; S55746 concentration 40, BCL-2 concentration 50 nM, independent experiment 1): 78.1857 | Raw data values in Figure 3h (SPR response) ([2]; S55746 concentration 40, BCL-2 concentration 50 nM, independent experiment 2): 30.4785 | Raw data values in Figure 3h (SPR response) ([2]; S55746 concentration 40, BCL-2 concentration 60 nM, independent experiment 1): 82.5478 | Raw data values in Figure 3h (SPR response) ([2]; S55746 concentration 40, BCL-2 concentration 60 nM, independent experiment 2): 36.3344 | Raw data values in Figure 3h (SPR response) ([2]; S55746 concentration 40, BCL-2 concentration 70 nM, independent experiment 1): 84.8279 | Raw data values in Figure 3h (SPR response) ([2]; S55746 concentration 40, BCL-2 concentration 70 nM, independent experiment 2): 40.4837 | Raw data values in Figure 3h (SPR response) ([2]; S55746 concentration 40, BCL-2 concentration 80 nM, independent experiment 1): 86.613 | Raw data values in Figure 3h (SPR response) ([2]; S55746 concentration 40, BCL-2 concentration 80 nM, independent experiment 2): 44.3565 | Raw data values in Figure 3h (SPR response) ([2]; S55746 concentration 40, BCL-2 concentration 100 nM, independent experiment 1): 88.6534 | Raw data values in Figure 3h (SPR response) ([2]; S55746 concentration 40, BCL-2 concentration 100 nM, independent experiment 2): 49.9278 | Raw data values in Figure 3h (SPR response) ([2]; S55746 concentration 40, BCL-2 concentration 150 nM, independent experiment 1): 91.2516 | Raw data values in Figure 3h (SPR response) ([2]; S55746 concentration 40, BCL-2 concentration 150 nM, independent experiment 2): 58.1685 | Raw data values in Figure 3h (SPR response) ([2]; S55746 concentration 40, BCL-2 concentration 200 nM, independent experiment 1): 92.8828 | Raw data values in Figure 3h (SPR response) ([2]; S55746 concentration 40, BCL-2 concentration 200 nM, independent experiment 2): 64.0843 | Raw data values in Figure 3h (SPR response) ([2]; S55746 concentration 60, BCL-2 concentration 10 nM, independent experiment 1): 8.7572 | Raw data values in Figure 3h (SPR response) ([2]; S55746 concentration 60, BCL-2 concentration 10 nM, independent experiment 2): 1.402 | Raw data values in Figure 3h (SPR response) ([2]; S55746 concentration 60, BCL-2 concentration 20 nM, independent experiment 1): 17.8604 | Raw data values in Figure 3h (SPR response) ([2]; S55746 concentration 60, BCL-2 concentration 20 nM, independent experiment 2): 2.802 | Raw data values in Figure 3h (SPR response) ([2]; S55746 concentration 60, BCL-2 concentration 30 nM, independent experiment 1): 29.7852 | Raw data values in Figure 3h (SPR response) ([2]; S55746 concentration 60, BCL-2 concentration 30 nM, independent experiment 2): 5.592 | Raw data values in Figure 3h (SPR response) ([2]; S55746 concentration 60, BCL-2 concentration 40 nM, independent experiment 1): 46.113 | Raw data values in Figure 3h (SPR response) ([2]; S55746 concentration 60, BCL-2 concentration 40 nM, independent experiment 2): 9.958 | Raw data values in Figure 3h (SPR response) ([2]; S55746 concentration 60, BCL-2 concentration 50 nM, independent experiment 1): 65.5161 | Raw data values in Figure 3h (SPR response) ([2]; S55746 concentration 60, BCL-2 concentration 50 nM, independent experiment 2): 18.5156 | Raw data values in Figure 3h (SPR response) ([2]; S55746 concentration 60, BCL-2 concentration 60 nM, independent experiment 1): 78.402 | Raw data values in Figure 3h (SPR response) ([2]; S55746 concentration 60, BCL-2 concentration 60 nM, independent experiment 2): 29.1548 | Raw data values in Figure 3h (SPR response) ([2]; S55746 concentration 60, BCL-2 concentration 70 nM, independent experiment 1): 82.48 | Raw data values in Figure 3h (SPR response) ([2]; S55746 concentration 60, BCL-2 concentration 70 nM, independent experiment 2): 34.7085 | Raw data values in Figure 3h (SPR response) ([2]; S55746 concentration 60, BCL-2 concentration 80 nM, independent experiment 1): 84.2763 | Raw data values in Figure 3h (SPR response) ([2]; S55746 concentration 60, BCL-2 concentration 80 nM, independent experiment 2): 38.0757 | Raw data values in Figure 3h (SPR response) ([2]; S55746 concentration 60, BCL-2 concentration 100 nM, independent experiment 1): 87.9314 | Raw data values in Figure 3h (SPR response) ([2]; S55746 concentration 60, BCL-2 concentration 100 nM, independent experiment 2): 45.7651 | Raw data values in Figure 3h (SPR response) ([2]; S55746 concentration 60, BCL-2 concentration 150 nM, independent experiment 1): 91.7815 | Raw data values in Figure 3h (SPR response) ([2]; S55746 concentration 60, BCL-2 concentration 150 nM, independent experiment 2): 56.7196 | Raw data values in Figure 3h (SPR response) ([2]; S55746 concentration 60, BCL-2 concentration 200 nM, independent experiment 1): 93.0262 | Raw data values in Figure 3h (SPR response) ([2]; S55746 concentration 60, BCL-2 concentration 200 nM, independent experiment 2): 63.1726
